Source: US3996360A, “Piperazine compounds” (Knoll A.G. Chemische Fabriken, priority 1974, dated 1976)
Read-outs that look alike come from different tables or passages of the source.

Legend:
[1] = system: left auricle of the guinea pig; assay: Functional refractory period of the left auricle, paired electrical stimulation (method of Govier); conditions: for percent lengthening of refractory period at 0.01 µM: Cavia porcellus, read-out: Antiarrhythmic Effect (Lengthening of the refractory period in percent); for percent lengthening of refractory period at 0.01 µM / Antiarrhythmic Effect (Lengthening of the refractory period in percent): Table 2, dose in each case 10^^-5 millimoles/liter; for Antiarrhythmic Effect (Lengthening of the Refractory Period) ED25: Table 1, effective dose which lengthens the refractory period by 25 percent
Excerpt: Evidence of the anti-arrhythmic effect of the new compounds is obtained in experimental animals by determination of the functional refractory period of the left auricle of the guinea pig with the aid of paired electrical stimulation employing the method of W. C. Govier, J. Pharmacol. Exp. Therap. 148, 100 - 105 (1965). In this experimental arrangement, those anti-arrhythmic agents already known for use in therapy, of differing structure and of different points of attack in the human, all distinguish themselves by lengthening the functional refractory period. The method additionally permits a determination of the effects of the substances on the contractile force of the heart muscle [cf. Reuter and Heeg, Naunyn-Schmiedeberg's Arch. Pharmak. 268, 323 - 333 (1971) and Zettler and Strubelt, Naunyn-Schmiedeberg's Arch. Pharmak. 271, 335 - 345 (1971)].
The testing of the substances in each case involves up to thirty individual experiments. For the dosage effect relationships, linear regression functions were calculated [A. Lindner, Statistische Methoden, 3rd Edition, Birkhaeuser Verlag, Basel (1969)], wherein the maximum percentage deviations from the starting value over a period of up to 60 minutes after addition of the test substance to the bath fluid were employed.
In following Table 1, column I, the optical isomers of one of the compounds of the invention and known anti-arrhythmic agents are named. Column II reports their anti-arrhythmic effect. Column III gives the inotropic effect, and column IV represents the therapeutic breadth of the compounds. The ED25 is the effective dose which lengthens the refractory period by 25 percent or reduces the contractile force by 25 percent.
The dose in each case is 10^^-5 millimoles/liter.

[2] = system: disturbances of the heart-beat rhythm; assay: Aconitine-induced disturbances of the heart rhythm, long term effect after peroral treatment; type: in vivo; conditions: rats, perorally 400 mg/kg, eight hours after administration, vs untreated animals
Excerpt: (§1) The anti-arrhythmic effect of the new compounds can also be determined in intact test animals by experimentally-induced disturbances of the heart rhythm. If rats are continually infused intravenously with aconitine, serious disturbances of the heart-beat rhythm, such as extrasystoles, ventricular tachycardia, and ventricular flutter, which disturbances eventually lead to the death of the test animals, are evident in an electrocardiogram. […] Bianchi et al., Arzneim. Forsch. 18, 845 - 850 (1968); Haas and Busch, Arzneim. Forsch. 18, 401 - 407 (1968); Haas et al., Arzneim. Forsch. 21, 1392 - 1399 (1971); Marmo, Naunyn-Schmiedeberg's Arch. Pharmak. 269, 231 - 247 (1971); Strubelt et al., Naunym-Schmiedeberg's Arch. Pharmak. 271, 346 - 360 ( 1971)].

[3] = system: left auricle of the guinea pig; assay: Inotropic effect: contractile force of the heart muscle (left auricle); conditions: Table 1; for Inotropic Effect (Decrease in Contractile Force) ED25: effective dose which reduces the contractile force by 25 percent; for Therapeutic Breadth (III/II): ratio inotropic ED25 / antiarrhythmic ED25
Excerpt: Evidence of the anti-arrhythmic effect of the new compounds is obtained in experimental animals by determination of the functional refractory period of the left auricle of the guinea pig with the aid of paired electrical stimulation employing the method of […]. Pharmacol. Exp. Therap. 148, 100 - 105 (1965). In this experimental arrangement, those anti-arrhythmic agents already known for use in therapy, of differing structure and of different points of attack in the human, all distinguish themselves by lengthening the functional refractory period. The method additionally permits a determination of the effects of the substances on the contractile force of the heart muscle [cf. Reuter and Heeg, Naunyn-Schmiedeberg's Arch. Pharmak. 268, 323 - 333 (1971) and Zettler and Strubelt, Naunyn-Schmiedeberg's Arch. Pharmak. 271, 335 - 345 (1971)]. The testing of the substances in each case involves up to thirty individual experiments. For the dosage effect relationships, linear regression functions were calculated [[…] Methoden, 3rd Edition, Birkhaeuser Verlag, Basel (1969)], wherein the maximum percentage deviations from the starting value over a period of up to 60 minutes after addition of the test substance to the bath fluid were employed. In following Table 1, column I, the optical isomers of one of the compounds of the invention and known anti-arrhythmic agents are named. Column II reports their anti-arrhythmic effect. Column III gives the inotropic effect, and column IV represents the therapeutic breadth of the compounds. The ED25 is the effective dose which lengthens the refractory period by 25 percent or reduces the contractile force by 25 percent.

[4] = system: disturbances of the heart-beat rhythm; assay: Aconitine-induced disturbances of the heart rhythm, intravenous pretreatment; type: in vivo, rats; conditions: intravenous; for ED25 / ED50: Rattus norvegicus; for Ventricular Flutter ED25: dose raising administered aconitine dose by 25 percent prior to ventricular flutter; for Ventricular Flutter ED50: dose raising administered aconitine dose by 50 percent prior to ventricular flutter
Excerpt: as §1
The ED25 and ED50 are the intravenous doses, in mg/kg, which raise the administered aconitine doses, in comparison with the aconitine control, by 25 percent or 50 percent prior to the appearance of extrasystoles, ventricular tachycardia, and ventricular flutter.

[5] = dose raising administered aconitine dose by 25 percent prior to ventricular tachycardia, read-out: Ventricular Tachycardia ED25
[6] = dose raising administered aconitine dose by 50 percent prior to ventricular tachycardia, read-out: Ventricular Tachycardia ED50

COc1ccc(CC2(C)CN(C(c3ccccc3)c3ccc(Cl)cc3)CCN2CCO)cc1OC (centres unmarked) [1-(p-chlorophenyl-phenylmethyl)-3-methyl-3-(3,4-dimethoxybenzyl)-4-hydroxyethyl-piperazine]
percent lengthening of refractory period at 0.01 µM [1]: 55%

COc1ccc(CC2(C)CN(C(c3ccccc3)c3ccc(Cl)cc3)CCN2)cc1OC (centres unmarked) [1-(p-chlorophenyl-phenylmethyl)-3-methyl-3-(3,4-dimethoxybenzyl)-piperazine]
percent lengthening of refractory period at 0.01 µM [1]: 28%

COc1ccc(CC2(C)CN(C(c3ccccc3)c3ccccc3)CCN2CCO)cc1OC (centres unmarked) [1-diphenylmethyl-3-methyl-3-(3,4-dimethoxybenzyl)-4-hydroxyethylpiperazine]
percent lengthening of refractory period at 0.01 µM [1]: 55%

COc1ccc(CC2(C)CN(C(c3ccccc3)c3ccccc3)CCN2C)cc1OC (centres unmarked) [1-diphenylmethyl-3-methyl-3-(3,4-dimethoxybenzyl)-4-methyl-p] [1-diphenylmethyl-3-methyl-3-(3,4-dimethoxybenzyl)-4-methyl-piperazine]
Antiarrhythmic Effect (Lengthening of the refractory period in percent) [1]: 64%

COc1ccc(CC2(C)CN(C(c3ccccc3)c3ccccc3)CCN2)cc1OC (centres unmarked) [1-diphenylmethyl-3-methyl-3-(3,4-dimethoxybenzyl)-piperazine] [listing 1 of 2 here]
percent lengthening of refractory period at 0.01 µM [1]: 46%

COc1ccc(CC2(C)CN(C(c3ccccc3)c3ccccc3)CCN2)cc1OC (centres unmarked) [1-diphenylmethyl-3-methyl-3-(3,4-dimethoxybenzyl)-piperazine] [listing 2 of 2 here]
effectiveness (in words) [1]: outstanding

CCN1CCN(C(c2ccccc2)c2ccccc2)CC1(C)Cc1ccc(OC)c(OC)c1 (centres unmarked) [(D)-1-diphenylmethyl-3-methyl-3-(3,4-dimethoxybenzyl)-4-ethy] [(D)-1-diphenylmethyl-3-methyl-3-(3,4-dimethoxybenzyl)-4-ethyl-piperazine]
Antiarrhythmic Effect (Lengthening of the refractory period in percent) [1]: 50%

COc1ccc(CC2(C)CN(C(c3ccccc3)c3ccccc3)CCN2CCO)cc1OC (centres unmarked) [(D)-1-diphenylmethyl-3-methyl-3-(3,4-dimethoxybenzyl)-4-hydr] [(D)-1-diphenylmethyl-3-methyl-3-(3,4-dimethoxybenzyl)-4-hydroxyethyl-piperazine]
Antiarrhythmic Effect (Lengthening of the refractory period in percent) [1]: 72%

COc1ccc(CC2(C)CN(C(c3ccccc3)c3ccccc3)CCN2C)cc1OC (centres unmarked) [(D)-1-diphenylmethyl-3-methyl-3-(3,4-dimethoxybenzyl)-4-meth] [(D)-1-diphenylmethyl-3-methyl-3-(3,4-dimethoxybenzyl)-4-methyl-piperazine]
higher dose of aconitine required before the appearance of extrasystoles [2]: 68%
higher dose of aconitine required before the appearance of ventricular flutter [2]: 70%
higher dose of aconitine required before the appearance of ventricular tachycardia [2]: 75%
Antiarrhythmic Effect (Lengthening of the Refractory Period) ED25 [1]: 0.0063
Antiarrhythmic Effect (Lengthening of the refractory period in percent) [1]: 50%
Inotropic Effect (Decrease in Contractile Force) ED25 [3]: 0.0093

CCCCN1CCN(C(c2ccccc2)c2ccccc2)CC1(C)Cc1ccc(OC)c(OC)c1 (centres unmarked) [(D)-1-diphenylmethyl-3-methyl-3-(3,4-dimethoxybenzyl)-4-n-butyl-piperazine]
percent lengthening of refractory period at 0.01 µM [1]: 31%

CCCN1CCN(C(c2ccccc2)c2ccccc2)CC1(C)Cc1ccc(OC)c(OC)c1 (centres unmarked) [(D)-1-diphenylmethyl-3-methyl-3-(3,4-dimethoxybenzyl)-4-n-propyl-piperazine]
percent lengthening of refractory period at 0.01 µM [1]: 51%

COc1ccc(CC2(C)CN(C(c3ccccc3)c3ccccc3)CCN2)cc1OC (centres unmarked) [(D)-1-diphenylmethyl-3-methyl-3-(3,4-dimethoxybenzyl)-pipera] [(D)-1-diphenylmethyl-3-methyl-3-(3,4-dimethoxybenzyl)-piperazine]
Antiarrhythmic Effect (Lengthening of the refractory period in percent) [1]: 31%

CCN1CCN(C(c2ccccc2)c2ccccc2)CC1(C)Cc1ccc(OC)c(OC)c1 (centres unmarked) [(L)-1-diphenylmethyl-3-methyl-3-(3,4-dimethoxybenzyl)-4-ethyl-piperazine]
percent lengthening of refractory period at 0.01 µM [1]: 48%

COc1ccc(CC2(C)CN(C(c3ccccc3)c3ccccc3)CCN2C)cc1OC (centres unmarked) [(L)-1-diphenylmethyl-3-methyl-3-(3,4-dimethoxybenzyl)-4-meth] [(L)-1-diphenylmethyl-3-methyl-3-(3,4-dimethoxybenzyl)-4-methyl-piperazine]
Antiarrhythmic Effect (Lengthening of the Refractory Period) ED25 [1]: 0.0056
Antiarrhythmic Effect (Lengthening of the refractory period in percent) [1]: 73%
Inotropic Effect (Decrease in Contractile Force) ED25 [3]: 0.0052
Therapeutic Breadth (III/II) [3]: 0.9

CC[C@H]1[C@@H]2C[C@H]3[C@@H]4N(C)c5ccccc5[C@]45C[C@@H]([C@@H]2[C@H]5O)N3[C@@H]1O [Ajmaline, reference compound]
percent lengthening of refractory period at 0.01 µM [1]: 14%

CCC[N+]12[C@H](O)[C@@H](CC)[C@@H]3C[C@H]1[C@@H]1N(C)c4ccccc4[C@]14C[C@H]2[C@@H]3[C@H]4O [N-n-propylajmaline, reference compound]
Antiarrhythmic Effect (Lengthening of the Refractory Period) ED25 [1]: 0.0037
Inotropic Effect (Decrease in Contractile Force) ED25 [3]: 0.0015
Therapeutic Breadth (III/II) [3]: 0.4

CCN(CC)CCNC(=O)c1ccc(N)cc1 [Procainamide]
higher dose of aconitine required before the appearance of extrasystoles [2]: 16%
higher dose of aconitine required before the appearance of ventricular flutter [2]: 29%
higher dose of aconitine required before the appearance of ventricular tachycardia [2]: 12%
ED25 ([4]; dose raising administered aconitine dose by 25 percent prior to extrasystoles, read-out: Extrasystoles ED25): 6.8 mg/kg
ED25 [4, 5]: 6.8 mg/kg
ED50 ([4]; dose raising administered aconitine dose by 50 percent prior to extrasystoles, read-out: Extrasystoles ED50): 52.6 mg/kg
ED50 [4, 6]: 29.1 mg/kg
Ventricular Flutter ED25 [4]: +
Ventricular Flutter ED50 [4]: +

C1CCN2C[C@@H]3C[C@@H](CN4CCCC[C@@H]34)[C@H]2C1 [Sparteine]
ED25 [4, 5]: 4.4 mg/kg
ED50 [4, 6]: 9.5 mg/kg
Extrasystoles ED25 ([4]; dose raising administered aconitine dose by 25 percent prior to extrasystoles): +
Ventricular Flutter ED25 [4]: +
Extrasystoles ED50 ([4]; dose raising administered aconitine dose by 50 percent prior to extrasystoles): +
Ventricular Flutter ED50 [4]: +
